Source: patent US9340577B2, “HLA binding motifs and peptides and their uses” (priority 1992, dated 2016)
No end group written: not given here.

Legend:
Assay in all cases: biochemical
DRB1*0802 = DRB1*0802 (Homo sapiens, UniProt P01903+P01911, A100R/A103L/A169T/F76Y/H45Y/I96F/K41T/L162R/M171V/P40S/Q125H/Q178H/Q39Y/Q99D/R218S/R42G/S66Y/V115G/W38E); assay type: binding
DRB1*1101 = DRB1*1101 (Homo sapiens, UniProt P01903+P01911, A100R/A169T/A87E/I96F/K41T/L162R/M171V/P40S/Q125H/Q178H/Q39Y/Q99D/R42S/S66Y/T262R/V115G/W38E); settings: Binding affinity DRB1 *1101
Sequence of DRB1*1101 (P01903 26-254 limits assumed, other chains not shown): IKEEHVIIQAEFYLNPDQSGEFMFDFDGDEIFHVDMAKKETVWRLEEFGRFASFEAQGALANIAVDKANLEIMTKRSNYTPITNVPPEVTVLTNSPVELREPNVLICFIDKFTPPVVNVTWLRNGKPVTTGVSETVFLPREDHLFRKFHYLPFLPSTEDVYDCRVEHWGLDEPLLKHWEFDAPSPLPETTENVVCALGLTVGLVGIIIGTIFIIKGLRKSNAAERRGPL

DRB1*1201 = DRB1*1201 (Homo sapiens, UniProt P01903+P01911, A100R/A169T/D57E/D86V/F55L/H45Y/K41T/L162R/M171V/P40S/Q125H/Q178H/Q39Y/Q99D/R42G/S66L/T262R/V114A/V67L/W38E/Y59H/Y61H/Y89S); assay type: binding
DRB5*0101 = DRB5*0101 (Homo sapiens, UniProt P01903+Q30154); settings: Binding affinity DRB5 *0101
DRB1*0901 = DRB1*0901 (Homo sapiens, UniProt P01903+P01911, A100R/A103E/D57H/D86V/F55Y/F60I/F76Y/I96F/K127E/L162R/M171V/P40D/Q125H/Q99R/R33Q/R42F/S133A/S66N/T210M/V115G/W38K/Y107V/Y59G/Y89S); assay type: binding
DR7 (DRB1*0701) = DR7 (DRB1*0701) (Homo sapiens, UniProt P01903+P01911, A100R/A102G/A103Q/D57E/D86V/E43K/F76Y/K127E/L162R/M171V/P40G/Q125H/Q99D/R33Q/R42Y/R54Q/S133A/S66F/T210M/V115G/Y107V/Y59L/Y89S); assay type: binding
DRB1*1501 = DRB1*1501 (Homo sapiens, UniProt P01903+P01911); assay type: binding

Row | Molecule | IC50 (DRB1*0802) | IC50 (DRB1*1101) | IC50 (DRB1*1201) | IC50 (DRB5*0101) | IC50 (DRB1*0901) | IC50 (DR7 (DRB1*0701)) | IC50 (DRB1*1501)
1 | CC[C@H](C)[C@H](NC(=O)[C@H](CO)NC(=O)[C@H](CC(C)C)NC(=O)[C@@H](NC(=O)[C@H](CC(C)C)NC(=O)[C@H](CC(=O)O)NC(=O)[C@H](Cc1c[nH]c2ccccc12)NC(=O)[C@@H](N)CCSC)C(C)C)C(=O)N[C@@H](C)C(=O)N[C@@H](CC(C)C)C(=O)N[C@@H](CO)C(=O)N[C@H](C(=O)NCC(=O)N[C@@H](CS)C(=O)N[C@H](C(=O)O)[C@@H](C)O)C(C)C [Peptide 68.0001] | > 20 µM | > 20 µM | 4580 nM | > 20 µM |  |  | 
2 | CC[C@H](C)[C@H](NC(=O)[C@H](CO)NC(=O)[C@@H](NC(=O)CNC(=O)[C@H](CCC(=O)O)NC(=O)[C@@H]1CCCN1)C(C)C)C(=O)N[C@@H](Cc1c[nH]c2ccccc12)C(=O)N[C@@H](CC(N)=O)C(=O)N1CCC[C@H]1C(=O)N[C@H](C(=O)N[C@@H](CC(C)C)C(=O)N[C@@H](CC(C)C)C(=O)N[C@@H](Cc1c[nH]c2ccccc12)C(=O)N[C@@H](CCC(N)=O)C(=O)N1CCC[C@H]1C(=O)O)[C@@H](C)CC [Peptide 68.0033] | > 20 µM | > 20 µM | 7970 nM | > 20 µM | > 20 µM |  | 
3 | CC[C@H](C)[C@H](NC(=O)[C@@H](N)CC(C)C)C(=O)N[C@@H](CCSC)C(=O)N[C@@H](Cc1ccc(O)cc1)C(=O)N[C@@H](CO)C(=O)N[C@@H](C)C(=O)N[C@@H](Cc1c[nH]cn1)C(=O)N[C@@H](CC(=O)O)C(=O)N[C@H](C(=O)N[C@H](C(=O)N[C@H](C(=O)N[C@@H](CO)C(=O)NCC(=O)N[C@@H](CC(C)C)C(=O)N[C@@H](CCC(N)=O)C(=O)O)C(C)C)[C@@H](C)O)[C@@H](C)O [Peptide 68.0050] | > 20 µM | > 20 µM | > 20000 nM | > 20 µM |  |  | 
4 | CSCC[C@H](NC(=O)[C@H](CCC(N)=O)NC(=O)[C@H](CC(C)C)NC(=O)CNC(=O)[C@H](CO)NC(=O)[C@@H](NC(=O)[C@@H](NC(=O)[C@@H](NC(=O)[C@@H](N)CC(=O)O)[C@@H](C)O)[C@@H](C)O)C(C)C)C(=O)N[C@@H](C)C(=O)N[C@@H](CC(C)C)C(=O)N[C@@H](CC(=O)O)C(=O)N[C@H](C(=O)N[C@@H](Cc1ccc(O)cc1)C(=O)N[C@@H](CC(N)=O)C(=O)O)C(C)C [Peptide 68.0051] | > 20 µM | > 20 µM | 712 nM | > 20 µM |  |  | 
5 | CC[C@H](C)[C@H](NC(=O)[C@@H](NC(=O)[C@@H](N)CO)C(C)C)C(=O)N[C@@H](CC(C)C)C(=O)N[C@@H](CC(C)C)C(=O)NCC(=O)N[C@@H](CCCNC(=N)N)C(=O)N[C@@H](Cc1c[nH]cn1)C(=O)N[C@@H](CO)C(=O)N[C@@H](CC(C)C)C(=O)N[C@@H](Cc1ccccc1)C(=O)N[C@@H](Cc1c[nH]cn1)C(=O)N1CCC[C@H]1C(=O)N[C@@H](CCC(=O)O)C(=O)N[C@@H](CC(=O)O)C(=O)O [Peptide 68.0067] |  |  | 91 nM |  |  | > 20 µM | 
6 | CC[C@H](C)[C@H](NC(=O)CNC(=O)[C@H](CCC(N)=O)NC(=O)[C@H](CC(C)C)NC(=O)[C@@H](NC(=O)CNC(=O)[C@H](CC(N)=O)NC(=O)[C@H](CS)NC(=O)[C@@H](NC(=O)[C@H](CC(C)C)NC(=O)[C@@H]1CCCN1C(=O)CN)C(C)C)C(C)C)C(=O)N[C@H](C(=O)N[C@@H](CO)C(=O)N[C@@H](Cc1c[nH]c2ccccc12)C(=O)O)[C@@H](C)O [Peptide 68.0080] |  |  | 1880 nM |  | > 20 µM |  | 
7 | CC(C)C[C@H](NC(=O)CNC(=O)[C@H](Cc1ccccc1)NC(=O)[C@H](CCC(=O)O)NC(=O)[C@H](CCCCN)NC(=O)[C@@H](N)Cc1c[nH]c2ccccc12)C(=O)N[C@@H](CC(=O)O)C(=O)N[C@@H](CO)C(=O)N[C@H](C(=O)N[C@@H](CCC(=O)O)C(=O)N[C@@H](CC(C)C)C(=O)N[C@@H](C)C(=O)N[C@@H](Cc1c[nH]cn1)C(=O)N[C@@H](Cc1ccc(O)cc1)C(=O)N[C@@H](CC(=O)O)C(=O)O)C(C)C [Peptide 68.0088] |  |  | > 20000 nM | > 20 µM |  |  | > 20 µM
8 | CC[C@H](C)[C@H](NC(=O)[C@H](CO)NC(=O)[C@H](CO)NC(=O)[C@H](CC(=O)O)NC(=O)[C@H](C)NC(=O)[C@H](CC(N)=O)NC(=O)[C@@H](NC(=O)[C@H](Cc1ccc(O)cc1)NC(=O)[C@H](C)NC(=O)[C@@H](NC(=O)CN)C(C)C)[C@@H](C)CC)C(=O)N[C@@H](CCC(=O)O)C(=O)NCC(=O)N[C@@H](CC(N)=O)C(=O)N[C@@H](Cc1ccc(O)cc1)C(=O)O [Peptide 68.0110] | > 20 µM | > 20 µM | 5490 nM | > 20 µM |  |  | 
9 | CSCC[C@H](NC(=O)[C@H](CC(C)C)NC(=O)[C@@H]1CCCN1C(=O)[C@@H](NC(=O)[C@H](CS)NC(=O)[C@H](CC(=O)O)NC(=O)[C@@H](NC(=O)[C@H](CCCNC(=N)N)NC(=O)[C@H](CC(C)C)NC(=O)[C@@H](NC(=O)[C@H](Cc1ccc(O)cc1)NC(=O)[C@@H](N)CC(N)=O)[C@@H](C)O)C(C)C)[C@@H](C)O)C(=O)N[C@@H](Cc1ccc(O)cc1)C(=O)N[C@@H](CO)C(=O)N[C@@H](CC(C)C)C(=O)O [Peptide 68.0112] |  |  | 594 nM | > 20 µM | > 20 µM | > 20 µM | 
10 | CC[C@H](C)[C@H](NC(=O)[C@H](CO)NC(=O)[C@H](CC(N)=O)NC(=O)[C@H](C)NC(=O)[C@H](CC(C)C)NC(=O)[C@H](CCC(=O)O)NC(=O)[C@H](Cc1ccccc1)NC(=O)[C@@H](NC(=O)[C@H](CCSC)NC(=O)CN)C(C)C)C(=O)N[C@H](C(=O)N[C@@H](CC(C)C)C(=O)N1CCC[C@H]1C(=O)N[C@@H](Cc1ccccc1)C(=O)N[C@@H](CC(=O)O)C(=O)O)C(C)C [Peptide 68.0123] |  | > 20 µM | 98 nM |  |  |  | 
11 | CC[C@H](C)[C@H](NC(=O)[C@H](CO)NC(=O)[C@H](CC(N)=O)NC(=O)[C@H](C)NC(=O)[C@H](CC(C)C)NC(=O)[C@H](CCC(=O)O)NC(=O)[C@H](Cc1ccccc1)NC(=O)[C@@H](N)C(C)C)C(=O)N[C@H](C(=O)N[C@@H](CC(C)C)C(=O)N1CCC[C@H]1C(=O)N[C@@H](Cc1ccccc1)C(=O)N[C@@H](CC(=O)O)C(=O)N[C@@H](CS)C(=O)N[C@@H](CCCNC(=N)N)C(=O)O)C(C)C [Peptide 68.0124] | > 20 µM |  | 525 nM |  |  |  | 
12 | CC[C@H](C)[C@H](NC(=O)[C@H](CCC(=O)O)NC(=O)[C@H](CC(N)=O)NC(=O)CNC(=O)[C@H](CC(=O)O)NC(=O)[C@H](CCC(=O)O)NC(=O)[C@H](CC(N)=O)NC(=O)[C@@H](NC(=O)[C@@H](NC(=O)[C@H](CO)NC(=O)[C@@H](NC(=O)[C@@H](N)Cc1ccc(O)cc1)[C@@H](C)CC)[C@@H](C)CC)[C@@H](C)CC)C(=O)N[C@@H](Cc1ccccc1)C(=O)N[C@@H](CC(N)=O)C(=O)N[C@H](C(=O)O)[C@@H](C)O [Peptide 68.0165] | > 20 µM | > 20 µM | > 20000 nM | > 20 µM | > 20 µM | > 20 µM | 
13 | CC[C@H](C)[C@H](NC(=O)[C@H](CO)NC(=O)[C@H](CO)NC(=O)[C@H](CC(=O)O)NC(=O)[C@H](C)NC(=O)[C@H](CC(N)=O)NC(=O)[C@@H](NC(=O)[C@H](Cc1ccc(O)cc1)NC(=O)[C@H](C)NC(=O)[C@@H](N)C(C)C)[C@@H](C)CC)C(=O)N[C@@H](CCC(=O)O)C(=O)NCC(=O)N[C@@H](CC(N)=O)C(=O)N[C@@H](Cc1ccc(O)cc1)C(=O)N[C@H](C(=O)O)[C@@H](C)O [Peptide 68.0177] | > 20 µM | > 20 µM | 8250 nM | > 20 µM |  |  | > 20 µM
14 | CC[C@H](C)[C@H](NC(=O)[C@H](Cc1ccccc1)NC(=O)[C@H](C)NC(=O)[C@H](CCCNC(=N)N)NC(=O)[C@H](CCC(=O)O)NC(=O)[C@H](CC(C)C)NC(=O)[C@H](Cc1ccccc1)NC(=O)[C@H](CCSC)NC(=O)[C@H](CC(C)C)NC(=O)[C@H](CCC(N)=O)NC(=O)[C@@H](N)CC(=O)O)C(=O)N[C@@H](CC(=O)O)C(=O)N1CCC[C@H]1C(=O)N[C@@H](CC(C)C)C(=O)NCC(=O)O [Peptide 68.0181] |  |  | 146 nM |  |  |  | 
15 | EDFFKLERDMKINCS [Peptide 68.0167] |  |  | > 20000 nM |  | > 20 µM |  | > 20 µM
16 | GAAVVHEIVRSFGTL [Peptide 68.0173] |  |  | 517 nM |  |  |  | 
17 | GKVFRGNKVKNAQLA [Peptide 68.0096] |  |  | > 20000 nM |  | > 20 µM |  | 
18 | HPQWVLTAAHCLKKN [Peptide 68.0003] |  |  | 11500 nM |  |  |  | 
19 | IGYYDAQKLLEKMGG [Peptide 68.0103] |  | > 20 µM | > 20000 nM |  | > 20 µM | > 20 µM | 
20 | LRMMNDQLMFLERAF [Peptide 68.0131] |  |  | 280 nM |  |  |  | 
21 | LTELYFEKGEYFVEM [Peptide 68.0153] |  | > 20 µM | 12700 nM |  | > 20 µM |  | > 20 µM
22 | NSRLLQERGVAYINA [Peptide 68.0176] |  |  | 620 nM |  |  |  | 
23 | PRSLQCVSLHLLSND [Peptide 68.0016] |  |  | 3860 nM | > 20 µM | > 20 µM |  | 
